Results taken from patent US20220016101A1 (ACADIA Pharmaceuticals Inc., priority 2018, published 2022).
Several values for one entry are separate records, joined by “and”; a condition that tells them apart may be missing. Equal values may be shown once.

Columns and labels:
[1] = system: adults with Parkinson's disease and depression; experiment: SCOPA Sleep, open-label study in Parkinson's disease and depression; type: in vivo, human; conditions: interim, first 31 patients
Text: “Scale of Outcomes in Parkinson's Disease (SCOPA) Sleep” is a scale developed for research in Parkinson disease to evaluate nighttime sleep and daytime sleepiness and has high internal consistency for the nighttime sleep and daytime sleepiness scales (0.88 and 0.91, respectively), and test-retest reliabilities (0.94 and 0.89, respectively). Scores on the SCOPA Sleep Scale show high correlations between the nighttime sleep scale and the Pittsburgh Sleep Quality Index (0.83), and between the daytime sleepiness scale and the Epworth Sleepiness Scale (0.81). The coefficient of variation of both the nighttime sleep and the daytime sleepiness scale can be higher than that of the Pittsburgh Sleep Quality Index and the Epworth Sleepiness Scale, indicating a better ability to detect differences between individuals. (Marinus J, Visser M, van Hilten J J, Lammers G J, Stiggelbout A M. Sleep. 2003; 26(8):1049-1054.)
(§1) Subjects can receive treatment as either monotherapy or adjunctively if inadequately controlled with SSRI/SNRI monotherapy. A primary endpoint of the study is change from baseline to Week 8 in the Hamilton Depression Scale 17-item (HAMD-17) total score. Secondary endpoints include Clinical Global Impression (CGI) scales (improvement and severity), Scale of Outcomes in PD-Sleep (SCOPA), and quality of life as measured by EuroQol-5 dimensions-5 levels (EQ-5D-5L).
At approximately 2, 4, and 6 weeks after start of dosing of study drug subjects returned to the clinic for assessments. Safety measures, HAMD-17, C-SSRS (Columbia Suicide Severity Rating Scale), CGI-S(Clinical Global Impression-Severity), and CGI-I (Clinical Global Impression-Improvement) were evaluated at all visits. […]
Continuous secondary efficacy endpoints (CGI-I, CGI-S, SCOPA, and EQ-5D-5L) were analyzed using similar MMRM models as for the primary efficacy endpoint, except that the Baseline value of the endpoint being analyzed was included in the model as a covariate instead of the Baseline HAMD-17 total score. […]

[2] = system: patients with MDD and an inadequate response to an SSRI or SNRI; experiment: Safety and tolerability (adverse events), Study ACP-103-042
[3] = system: adults with Parkinson's disease and depression; experiment: Adverse events, open-label study in Parkinson's disease and depression; type: in vivo, human; conditions: of the first 31 patients; most common falls, UTI, diarrhea, nausea
Text: as §1
Adverse events were classified into standard terminology using the Medical Dictionary for Regulatory Activities (MedDRA). Treatment-emergent adverse events (TEAEs), TEAEs leading to discontinuation, TEAEs related to study drug, TEAEs by maximum severity, serious adverse events (SAEs), and SAEs related to study drug were summarized.

CC(C)COc1ccc(CNC(=O)N(Cc2ccc(F)cc2)C2CCN(C)CC2)cc1 [pimavanserin, N-(4-Fluorophenylmethyl)-N-(1-methylpiperidin-4-yl)-N′-(4-(2-methylpropyloxy)phenylmethyl)carbamide]
SCOPA-Daytime Sleepiness change from Baseline to Week 8 [1]: −2.1 (0.4)
SCOPA-Global Sleep Quality change from Baseline to Week 8 [1]: −1.0 (0.4)
SCOPA-Nighttime Sleep change from Baseline to Week 8 [1]: −2.1 (0.7)
Discontinuations due to adverse events ([2]; 34 mg QD + SSRI/SNRI): 1.2% and 1.9%
rates of daytime sleepiness, weight gain, metabolic laboratory tests, and sexual dysfunction ([2]; 34 mg QD + SSRI/SNRI): low rates
tolerability ([2]; 34 mg QD + SSRI/SNRI): generally well-tolerated
tolerability ([2]; 34 mg QD + SSRI/SNRI, listed as Pimavanserin): well tolerated
subjects reporting serious adverse events ([2]; deemed not related to study drug): One subject
patients reporting adverse events [3]: 13
